Experimental data from patent publication US10696615B2, “Prenylated hydroxystilbenes” (The University of Sydney, priority 2011, dated 2020).

Columns and labels:
786-0 = test: NCI in vitro cancer screen, Renal Cancer; assay type: cell-based, human; conditions: 786-0
PC-3 = test: NCI in vitro cancer screen, Prostate Cancer; assay type: cell-based, human; conditions: PC-3
SNB-75 = test: NCI in vitro cancer screen, CNS Cancer; assay type: cell-based, human; conditions: SNB-75
SN12C = test: NCI in vitro cancer screen, Renal Cancer; assay type: cell-based, human
HL-60 (TB) = test: NCI in vitro cancer screen, Leukemia; assay type: cell-based, human; conditions: HL-60 (TB)
IGROV1 = test: NCI in vitro cancer screen, Ovarian Cancer; assay type: cell-based, human; conditions: IGROV1
RXF-393 = test: NCI in vitro cancer screen, Renal Cancer; assay type: cell-based, human; conditions: RXF-393
OVCAR-3 = test: NCI in vitro cancer screen, Ovarian Cancer; assay type: cell-based, human; conditions: OVCAR-3
OVCAR-5 = test: NCI in vitro cancer screen, Ovarian Cancer; assay type: cell-based, human; conditions: OVCAR-5
SF-268 = test: NCI in vitro cancer screen, CNS Cancer; assay type: cell-based, human; conditions: SF-268
KM12 = test: NCI in vitro cancer screen, Colon Cancer; assay type: cell-based, human; conditions: KM12
A549/ATCC = test: NCI in vitro cancer screen, Non-Small Cell Lung Cancer; assay type: cell-based, human
HOP-92 = test: as above; assay type: cell-based, human; conditions: HOP-92
K-562 = test: NCI in vitro cancer screen, Leukemia; assay type: cell-based, human; conditions: K-562
SF-539 = test: NCI in vitro cancer screen, CNS Cancer; assay type: cell-based; conditions: SF-539
A498 = test: NCI in vitro cancer screen, Renal Cancer; assay type: cell-based, human; conditions: A498
T-47D = test: NCI in vitro cancer screen, Breast Cancer; assay type: cell-based, human
NCI-H226 = test: NCI in vitro cancer screen, Non-Small Cell Lung Cancer; assay type: cell-based, human; conditions: NCI-H226
SW-620 = test: NCI in vitro cancer screen, Colon Cancer; assay type: cell-based, human; conditions: SW-620
OVCAR-8 = test: NCI in vitro cancer screen, Ovarian Cancer; assay type: cell-based, human; conditions: OVCAR-8
NCI-H522 = test: NCI in vitro cancer screen, Non-Small Cell Lung Cancer; assay type: cell-based, human; conditions: NCI-H522
UACC-62 = test: NCI in vitro cancer screen, Melanoma; assay type: cell-based, human; conditions: UACC-62
SF-295 = test: NCI in vitro cancer screen, CNS Cancer; assay type: cell-based, human; conditions: SF-295
SK-OV-3 = test: NCI in vitro cancer screen, Ovarian Cancer; assay type: cell-based, human; conditions: SK-OV-3
HOP-62 = test: NCI in vitro cancer screen, Non-Small Cell Lung Cancer; assay type: cell-based, human; conditions: HOP-62
SK-MEL-5 = test: NCI in vitro cancer screen, Melanoma; assay type: cell-based, human; conditions: SK-MEL-5
MDA-MB-435 = test: NCI in vitro cancer screen, Melanoma; assay type: cell-based, human; conditions: MDA-MB-435
LOX IMVI = test: NCI in vitro cancer screen, Melanoma; assay type: cell-based, human
MOLT-4 = test: NCI in vitro cancer screen, Leukemia; assay type: cell-based, human; conditions: MOLT-4
HS 578T = test: NCI in vitro cancer screen, Breast Cancer; assay type: cell-based, human
TK-10 = test: NCI in vitro cancer screen, Renal Cancer; assay type: cell-based, human; conditions: TK-10
[1] = Homo sapiens, read-out: LC50 (the source's name)

Structure (SMILES): COc1cc(/C=C/c2cc(O)c(CC=C(C)C)c(O)c2)ccc1O [USYDS13, (E)-4-(3-methyl-2-buten-1-yl)-3,4′,5-trihydroxy-3′-methoxystilbene]
- TGI (786-0): 24.5 µM
- GI50 (786-0; Homo sapiens): 5.24 µM
- LC50 (50% net cell kill) (786-0; Homo sapiens): > 100 µM
- GI50 (PC-3; Homo sapiens): 6.36 µM
- CC50 (PC-3; [1]): > 100 µM
- TGI (PC-3): >100 µM
- GI50 (SNB-75; Homo sapiens): 5.47 µM
- CC50 (SNB-75; [1]): > 100 µM
- TGI (SNB-75): 36.6 µM
- TGI (SN12C): >100 µM
- GI50 (SN12C; Homo sapiens): 7.16 µM
- CC50 (SN12C; [1]): > 100 µM
- TGI (HL-60 (TB)): 17.1 µM
- GI50 (HL-60 (TB); Homo sapiens): 2.55 µM
- CC50 (HL-60 (TB); [1]): > 100 µM
- GI50 (IGROV1; Homo sapiens, IGROV-1): 6.7 µM
- CC50 (IGROV1; Homo sapiens, IGROV-1, read-out: LC50 (the source's name)): > 100 µM
- TGI (IGROV1): 86.2 µM
- GI50 (RXF-393; Homo sapiens): 5.48 µM
- CC50 (RXF-393; [1]): 46.5 µM
- TGI (RXF-393): 18.9 µM
- GI50 (OVCAR-3; Homo sapiens): 7.98 µM
- CC50 (OVCAR-3; [1]): > 100 µM
- TGI (OVCAR-3): 39.8 µM
- GI50 (OVCAR-5; Homo sapiens): 13.9 µM
- CC50 (OVCAR-5; [1]): > 100 µM
- TGI (OVCAR-5): 79.3 µM
- GI50 (SF-268; Homo sapiens): 6.17 µM
- CC50 (SF-268; [1]): > 100 µM
- TGI (SF-268): 32.9 µM
- GI50 (KM12; Homo sapiens): 3.15 µM
- CC50 (KM12; [1]): 49 µM
- TGI (KM12): 16.1 µM
- TGI (A549/ATCC): 20.4 µM
- GI50 (A549/ATCC; Homo sapiens): 4.01 µM
- CC50 (A549/ATCC; [1]): > 100 µM
- TGI (HOP-92): 30.5 µM
- GI50 (HOP-92; Homo sapiens): 5.96 µM
- CC50 (HOP-92; [1]): > 100 µM
- GI50 (K-562; Homo sapiens, K562): 4.08 µM
- CC50 (K-562; Homo sapiens, K562, read-out: LC50 (the source's name)): > 100 µM
- TGI (K-562): 57.5 µM
- GI50 (SF-539; Homo sapiens): 7.32 µM
- CC50 (SF-539; [1]): > 100 µM
- TGI (SF-539): 29.9 µM
- TGI (A498): 21.0 µM
- GI50 (A498; Homo sapiens): 3.88 µM
- CC50 (A498; [1]): 63.5 µM
- TGI (T-47D): 14.7 µM
- GI50 (T-47D; Homo sapiens, T47D): 2.92 µM
- CC50 (T-47D; Homo sapiens, T47D, read-out: LC50 (the source's name)): 70.5 µM
- GI50 (NCI-H226; Homo sapiens): 10.9 µM
- LC50 (50% lethal concentration) (NCI-H226; Homo sapiens): > 100 µM
- TGI (NCI-H226): 50.1 µM
- GI50 (SW-620; Homo sapiens): 3.98 µM
- CC50 (SW-620; [1]): 42.8 µM
- TGI (SW-620): 15.9 µM
- GI50 (OVCAR-8; Homo sapiens): 5.48 µM
- CC50 (OVCAR-8; [1]): > 100 µM
- TGI (OVCAR-8): 59.8 µM
- GI50 (NCI-H522; Homo sapiens): 2.13 µM
- CC50 (NCI-H522; [1]): 25.6 µM
- TGI (NCI-H522): 59.8 µM
- GI50 (UACC-62; Homo sapiens): 5.3 µM
- CC50 (UACC-62; [1]): 58.8 µM
- TGI (UACC-62): 19.7 µM
- GI50 (SF-295; Homo sapiens): 5.22 µM
- CC50 (SF-295; [1]): 77.5 µM
- TGI (SF-295): 23.5 µM
- GI50 (SK-OV-3; Homo sapiens): 7.96 µM
- CC50 (SK-OV-3; [1]): > 100 µM
- TGI (SK-OV-3): 36.2 µM
- TGI (HOP-62): 20.4 µM
- GI50 (HOP-62; Homo sapiens): 5.66 µM
- CC50 (HOP-62; [1]): 53.7 µM
- GI50 (SK-MEL-5; Homo sapiens): 2.5 µM
- CC50 (SK-MEL-5; [1]): 29.2 µM
- TGI (SK-MEL-5): 8.54 µM
- GI50 (MDA-MB-435; Homo sapiens): 3.08 µM
- CC50 (MDA-MB-435; [1]): > 100 µM
- TGI (MDA-MB-435): 15.9 µM
- TGI (LOX IMVI): 20.2 µM
- GI50 (LOX IMVI; Homo sapiens): 4.48 µM
- CC50 (LOX IMVI; [1]): 80 µM
- GI50 (MOLT-4; Homo sapiens): 2.95 µM
- CC50 (MOLT-4; [1]): > 100 µM
- TGI (MOLT-4): 13.7 µM
- TGI (HS 578T): 15.0 µM
- GI50 (HS 578T; Homo sapiens): 2.4 µM
- CC50 (HS 578T; [1]): > 100 µM
- GI50 (TK-10; Homo sapiens): 6.98 µM
- LC50 (TK-10; Homo sapiens): > 100 µM
- TGI (TK-10): 31.4 µM
